Test results from patent publication US6777387B2, “Terminally-branched polymeric linkers containing extension moieties and polymeric conjugates containing the same” (Enzon Pharmaceuticals, Inc., priority 2000, dated 2004).

What was measured:
[1] = tested on: human non-small cell lung carcinoma (LX-1); test: Efficacy against subcutaneous LX-1 xenograft in nude mice; type: in vivo; settings: i.v.; for T/C(%) at Day 14: median tumor volume treated vs control when control ~1000 mm^3; for T/C (%) at Day 21: median tumor volume treated vs control when control ~2000 mm^3
Description: ^13C NMR spectra were obtained at 67.80 MHz on the JNM GSX-270 or 75.46 MHz on the Varian MercuryVX-300. Chemical shifts (δ) are reported in parts per million (ppm) downfield from tetramethylsilane (TMS) and coupling constants (J values) are given in hertz (Hz). All PEG conjugated compounds were dissolved (˜15 mg/mL) in sterile saline (0.9%) for injection prior to in vivo drug treatments and were given as their ara-C equivalents (absolute amount of ara-C given).
Athymic nude mice were implanted subcutaneous with a 4-5 mm^3 tissue fragment of LX-1 collected from donor mice. The tumor trocar site was observed twice weekly and measured once palpable. The tumor volume for each mouse was determined by measuring two dimensions with calipers and calculated using the formula: tumor volume=(length×width^2)/2. […] The mice were sorted to evenly distribute tumor size, grouped into 4 to 6 mice/group, and ear punched for permanent identification. Drugs were administered intravenously q3d×4 (Day 1, 4, 7 and 10) via the tail vein at an approximate rate of 0.5 mL per minute. Compounds were given both at an equal molar basis (absolute amount of active) of 20 mg/kg and at close their respective MTD (Ara-C, 100 mg/kg/dose (toxicity); PEG-AraC, 40 to 60 mg/kg/dose (volume). Mouse weight and tumor size were measured at the beginning of study and twice weekly through week 4. Drug effectiveness was determined by comparing tumor growth in treated versus untreated (no vehicle) control mice. Five types of endpoints were used as the basis for comparison: (a) mean tumor volumes at Day 28; (b) mean percent change in individual tumor volumes from initial; (c) percent difference in tumor volume (%T/C), measured when the control group's median tumor volume reached approximately 800-1100 mm^3 (exponential growth phase); (d) percent difference in tumor volume (%T/C) at Day 21 (˜2000 mm^3) and (e) the number of tumor regression (smaller tumor volume at Day 21 (˜2000 mm^3) and (e) the number of tumor regression (smaller tumor volume on Day 28 compared to Day 1) per group.

[2] = tested on: P388/0; test: Cytotoxicity assay, P388/0 cells (Alamar Blue); type: cell-based; settings: 37° C., 3 days incubation, duplicate, SD ±10%
Description: Cell Lines and Cytotoxicity Assays. Studies using P388/0 cell lines for IC50 (drug concentration inhibiting growth of cells by 50%) were maintained and conducted as previously reported. Briefly, for IC50 determination, cells were seeded into the microwell plates at a density […] per 50 μL per well. Plates were incubated at 37° C. in a humidified incubator with 5% CO2 for 3 days. Cell growth was measured by the addition of 10 μL/well of Alamar Blue (Alamar Biosciences, Inc., Sacramento, Calif.) and the plates were incubated a further 4 hours at 37° C. The IC50 values for each compound were determined from absorbance versus dilution factor plots. […] All cell lines were periodically tested for Mycoplasma and were Mycoplasma free.

Nc1ccn([C@@H]2O[C@H](CO)[C@@H](O)[C@@H]2O)c(=O)n1 [Ara-C, ara-C]
Complete Regression (#/Grp) ([1]; total dose 80 mg/kg): 0/4 | Regression at Day 28 (#/Grp) ([1]; total dose 80 mg/kg): 0/4 | T/C(%) at Day 14 ([1]; total dose 80 mg/kg): 51.1% | T/C (%) at Day 21 ([1]; total dose 80 mg/kg): 52.2% | Complete Regression (#/Grp) ([1]; total dose 400 mg/kg): 0/6 | Regression at Day 28 (#/Grp) ([1]; total dose 400 mg/kg): 1/6 | T/C(%) at Day 14 ([1]; total dose 400 mg/kg): 16.7% | T/C (%) at Day 21 ([1]; total dose 400 mg/kg): 33.4% | IC50 [2]: 10 nM
